From patent publication US20180055887A1, “METHOD FOR PREPARING INDUCED MESENCHYMAL STEM CELLS AND IMPROVING MESENCHYMAL STEM CELL'S CHARACTERS AND ITS APPLICATIONS” (ACADEMIA SINICA, priority 2016, published 2018) come the findings set out here.

For experiment [1], the system named is Human primary neonatal foreskin fibroblasts (CRL2097). Briefly: Generation of iMSCs from fibroblasts by chemical treatment, flow cytometry for SSEA-4 and PODXL. To be noted: for Percentage of cells with both SSEA-4 and PODXL: CRL2097 fibroblasts, DMEM only 0.1%; for iMSC generation from fibroblasts (in words): SSEA-4+PODXL+ population by flow cytometry, without growth factors. It counts as cell-based. As to the method:
For iMSC dedifferentiation from human fibroblasts, primary fibroblasts were cultured in DMEM-HG for 2 days. The culture medium was then replaced with medium containing different chemical(s), with or without growth factor(s), for 3 to 21 days (FIG. 1A). Cells were cultured at 37° C. under 5% CO2.
Cells were then analyzed by FACSCanto (Becton Dickinson, Franklin Lakes, N.J., USA). SSEA-4 and PODXL double positive cells were isolated using a cell sorter (FACS Aria II, BD Biosciences).
After culture, the cells treated by the chemical cocktail were examined by flow cytometry.
Human primary neonatal foreskin fibroblasts (CRL2097) were cultured in DMEM medium only (as a negative control) or in DMEM medium containing a GSK3β inhibitor (CHIR99021, 3 μM) or a protein kinase C inhibitor (Go6983, 5 μM), and the percentage of the cells converted to iMSCs, co-expressing SSEA-4 and PODXL, were determined by flow cytometer.
Additional combinations of chemicals were analyzed for their activities to generate iMSCs from fibroblasts and the percentage of the cells converted to iMSCs, co-expressing SSEA-4 and PODXL, were determined by flow cytometer.

In a further experiment the test system is BMMSCs. The experiment can be described thus: Improvement of multipotency of MSCs: percentage of MSC markers SSEA-4 and PODXL by flow cytometer. It is filed as cell-based, human. To be noted: treatment of BMMSCs. As to the method: For cell surface marker analysis, BMMSCs, iMSCs, and fibroblasts were incubated with FITC-conjugated anti-human SSEA-4 (clone MC-813-70; eBiosciences, San Diego, Calif., USA) and PE-conjugated anti-human PODXL (clone B34D1.3; eBiosciences) antibodies. Cells were then analyzed by FACSCanto (Becton Dickinson, Franklin Lakes, N.J., USA). SSEA-4 and PODXL double positive cells were isolated using a cell sorter (FACS Aria II, BD Biosciences).
BBMSCs were cultured in conversion medium for 6 days, without chemical treatment (control) or with treatment of chemical cocktails (6C+3GF), including six chemical kinase(6C) inhibitors i.e. a p38 inhibitor (5B202190), a JNK inhibitor (SP600125), a protein kinase C inhibitor (Go6983), a ROCK inhibitor (Y-27632), a ERK1/2 inhibitor (PD0325901) and a GSK3β inhibitor (CHIR99021) and three growth factors i.e. a leukemia inhibitory factor (LIF), a basic fibroblast growth factor (bFGF) and a transforming growth factor-β (TGF-β). In other conditions, MSCs were cultured with chemicals cocktails (six, seven or eight chemicals) without the growth factors. The percentages of the MSC markers, SSEA-4 and PODXL, were determined by flow cytometer. Six chemicals (6C) includes a p38 inhibitor (SB202190), a JNK inhibitor (SP600125), a protein kinase C inhibitor (Go6983), a ROCK inhibitor (Y-27632), a ERK1/2 inhibitor (PD0325901) and a GSK3β inhibitor (CHIR99021). […]

The mark [2] stands for this setting: Table 2: other factors or a combination, tested in the same manner.

Each structure is given as a SMILES string. Marks after values point to notes of the source that are not given here.

As to `c1cc(-c2cnn3cc(-c4ccc(OCCN5CCCCC5)cc4)cnc23)ccn1` [Dorsomorphin, 6-[4-(2-Piperidin-1-yl-ethoxy)-phenyl]-3-pyridin-4-yl-pyrrazolo[1,5,-α]pyrimidine], the “Percentage of cells with both SSEA-4 and PODXL” value (“Percentage of cells” for short) is recorded as 0.10% in experiment [1] (setting [2]) and 0.1% in experiment [1] (Table 2: other factors or a combination, tested in the same manner, listed as dorsomorphin).

As to `COc1cc2nc(N3CCCN(C)CC3)nc(NC3CCN(Cc4ccccc4)CC3)c2cc1OC` [BIX01294], the “Percentage of cells” value in experiment [1] (setting [2]) stood at 0.30%.

As for `C[S+]([O-])c1ccc(-c2nc(-c3ccc(F)cc3)c(-c3ccncc3)[nH]2)cc1` (stereo not shown) [SB203580], in experiment [1] (setting [2]), the “Percentage of cells” value is on record as 0.10%.

With `CCCC(CCC)C(=O)O` [VPA, 2-Propylpentanoic acid], in experiment [1] (setting [2]), the “Percentage of cells” value is reported as 0.2%.

As for `C[C@@H](N)[C@H]1CC[C@H](C(=O)Nc2ccncc2)CC1` [Y27632], the “Percentage of cells” value in experiment [1] (setting [2]) is recorded as 0.50%.

`Cc1cccc(-c2n[nH]cc2-c2ccc3ncccc3n2)n1` [Repsox, 2-[3-(6-Methyl-2-pyridinyl)-1H-pyrazol-4-yl]-1,5-naphthyridine]: the “Percentage of cells” value in experiment [1] (setting [2]) came out at 0.40%.

As for `COc1ccc2c(c1)c(C1=C(c3c[nH]c4ccccc34)C(=O)NC1=O)cn2CCCN(C)C` [Go6983, 3-{1-[3-(Dimethylamino)propyl]-5-methoxy-1H-indol-3-yl}-4-(1H-indol-3-yl)-1H-pyrrole-2,5-dione], in experiment [1], the “iMSC generation from fibroblasts (in words)” value was “effective in iMSC generation”. For the same compound, the “expression of functional markers of BMSCs (in words)” value in the experiment with BMMSCs was “can effectively increase the expression of functional markers”.

As for `O=C(NCc1ccccc1)c1csc(Nc2ccncn2)n1` [Thiazovivin], the “Percentage of cells” value in experiment [1] (setting [2]) is listed as 0.80%; in experiment [1] (Table 2: other factors or a combination, tested in the same manner, listed as thiazovivin), 0.8%.

`O=C1O[C@H]([C@@H](O)CO)C(O)=C1O` [VitC, ascorbic acid]: in experiment [1] (setting [2]), the “Percentage of cells” value is 0.60%.

Regarding `Cc1nc(Nc2ncc(C(=O)Nc3c(C)cccc3Cl)s2)cc(N2CCN(CCO)CC2)n1` [Dasatinib], the “Percentage of cells” value in experiment [1] (setting [2]) was found to be 0.40%.

Regarding `CC(=O)N[C@@H](CS)C(=O)O` [NAC, N-Acetylcysteine], the “Percentage of cells” value in experiment [1] (setting [2]) was found to be 0.50%.

Consider `O=S(=O)(c1cccc2cnccc12)N1CCCNCC1` [Fasudil], for which the “Percentage of cells” value in experiment [1] (setting [2]) is reported as 0.20%.

Regarding `CO[C@H]1C[C@@H]2CC[C@@H](C)[C@@](O)(O2)C(=O)C(=O)N2CCCC[C@H]2C(=O)O[C@H]([C@H](C)C[C@@H]2CC[C@@H](O)[C@H](OC)C2)CC(=O)[C@H](C)/C=C(\C)[C@@H](O)[C@@H](OC)C(=O)[C@H](C)C[C@H](C)/C=C/C=C/C=C/1C` [Rapamycin, (1R,9S,12S,15R,16E,18R,19R,21R,23S,24E,26E,28E,30S,32S,35R)-1,18-Dihydroxy-12-{(2R)-1-[(1S,3R,4R)-4-hydroxy-3-methoxycyclohexyl]-2-propanyl}-19,30-dimethoxy-15,17,21,23,29,35-hexamethyl-11,36-dioxa-4-azatricyclo[30.3.1.0~4,9~]hexatriaconta-16,24,26,28-tetraene-2,3,10,14,20-pentone], the “Percentage of cells” value in experiment [1] (setting [2]) amounted to 0.20%.

With `O=C1c2ccccc2-c2n[nH]c3cccc1c23` [SP600125], in experiment [1] (setting [2]), the “Percentage of cells” value was found to be 0.20%.

As for `Oc1ccc(-c2nc(-c3ccncc3)c(-c3ccc(F)cc3)[nH]2)cc1` [SB202190], the “Percentage of cells” value in experiment [1] (setting [2]) is listed as 0.10%.

Take `Cc1cnc(-c2cnc(NCCNc3ccc(C#N)cn3)nc2-c2ccc(Cl)cc2Cl)[nH]1` [CHIR99021, 6-[(2-{[4-(2,4-Dichlorophenyl)-5-(5-methyl-1H-imidazol-2-yl)-2-pyrimidinyl]amino}ethyl)amino]nicotinonitrile]: the “iMSC generation from fibroblasts (in words)” value in experiment [1] is “effective in iMSC generation”. Besides, the “Percentage of cells” value in experiment [1] (Table 1: single factor in DMEM medium, CHIR99021 3 μM, Go6983 5 μM) was determined as 0.9%; in experiment [1] (Table 1: single factor in DMEM medium, CHIR99021 3 μM, Go6983 5 μM, listed as CHIR99201), 0.90%*.

As to `N[C@@H](CCC(=O)N[C@@H](CS)C(=O)NCC(=O)O)C(=O)O` [GSH, Glutathione], the “Percentage of cells” value in experiment [1] (setting [2]) stood at 0.40%.

Regarding `NC(=O)c1ccc(-c2nc(-c3ccc4c(c3)OCO4)c(-c3ccccn3)[nH]2)cc1` [SB431542], in experiment [1] (setting [2]), the “Percentage of cells” value worked out at 0.40%.

With `COc1ccc(C2CNC(=O)C2)cc1OC1CCCC1` (stereo not shown) [Rolipram], the “Percentage of cells” value in experiment [1] (setting [2]) amounted to 0.30%.

In the case of `CC(C)N(CCCNC(=O)Nc1ccc(C(C)(C)C)cc1)C[C@H]1O[C@@H](n2cc(Br)c3c(N)ncnc32)[C@H](O)[C@@H]1O` [SGC0946, 5-Bromo-7-(5-deoxy-5-{isopropyl[3-({[4-(2-methyl-2-propanyl)phenyl]carbamoyl}amino)propyl]amino}-β-D-ribofuranosyl)-7H-pyrrolo[2,3-d]pyrimidin-4-amine], the “Percentage of cells” value in experiment [1] (setting [2]) was 0.20%.

Turning to `CCCC(=O)[O-].[Na+]` [Sodium butyrate], the “Percentage of cells” value in experiment [1] (setting [2]) was 0.70%.

For the compound `O=c1cc(N2CCOCC2)oc2c(-c3ccccc3)cccc12` [LY294002], in experiment [1] (setting [2]), the “Percentage of cells” value came out at 0.80%.

With `O=C(NOC[C@@H](O)CO)c1ccc(F)c(F)c1Nc1ccc(I)cc1F` [PD0325901, N-[(2S)-2,3-Dihydroxypropoxy]-3,4-difluoro-2-[(2-fluoro-4-iodophenyl)amino]benzamide], in experiment [1] (setting [2]), the “Percentage of cells” value was 0.40%.
